In data set [1] the test system is MRL/LPR mice (autoimmune disease resembling systemic lupus erythematosus). Kind of data set: MRL/LPR mice model of lupus. The class given is in vivo. As to conditions: female MRL/LPR mice, oral BID for 11 weeks from 9 weeks of age; BIIB091 50 mg/kg, DRF 90 mg/kg. An excerpt:
MRL/MpJ-Fas^lppr/J (MRL-lpr) (hereinafter MRL/LPR mice) mice develop an autoimmune disease resembling systemic lupus erythematosus (SLE). These mice have a severe disease progression involving anti-DNA antibodies, fatal glomerulonephritis, vasculitis, skin lesions, lymphadenopathy and splenomegaly. The causative mutation in this strain of mice is a loss of function in the death receptor Fas and disease onset is accelerated in female mice as compared to males. For this reason, female mice were chosen for these experiments.
Female MRL/LPR mice were ordered from the Jackson laboratory and all experiments were conducted a Boulder Biopath.
Female mice were dosed orally beginning at 9 weeks of age with BIIB091 alone, DRF alone, BIIB091 and DRF in combination or the vehicle control twice daily (BID) for 11 weeks. BIIB091 was dosed at 50 mg/kg, while DRF was dosed at 90 mg/kg, respectively. Cyclophosphamide (CPA) was used as a positive control in the study and was administered through intraperitoneal injection (IP) once daily at 15 mg/kg. […]
The following serum cytokines and chemokines were assessed using Luminex assays: IL-1B, IL-2, IL-4, IL-5, IL-6, IL-10, IL-12, IL-13, IL-15, IL-17A, IL-17E, IL-17F, IL-21, IL-22, IL-23, IL-27, IL-28B, IL-31 and IL-33; sCD40L, GM-CSF, IFNγ, MIP-3α, TNFα and TNFβ. […]

Data set [2] has as its system BCR-mediated CD69 upregulation on CD19+ B cells. Kind of data set: CD69 assay in whole blood stimulated with anti-human IgD. The class given is cell-based. As to conditions: 30 minutes pre-incubation at 37° C., overnight anti-IgD stimulation.
For data set [3], the system named is B cell-dependent experimental autoimmune encephalomyelitis (EAE). The data set is described as follows: Prophylactic B cell-dependent EAE, murine model of multiple sclerosis (hMOG1-125 immunization). The class given is in vivo, C57BL/6 mice. As to conditions: BIIB091 50 mpk and/or DRF 90 mpk p.o. BID; for End score +/- SD: EAE score scale 0 to 5, end of study Day 28; for MMS +/- SD (mean maximum score): EAE score scale 0 to 5; for MMS +/- SD (mean maximum score) / EAE incidence / Median day of onset (all mice): Day 0 to Day 27; for End % body weight +/- SD: end of study Day 28; for EAE incidence / Median day of onset (all mice): female C57BL/6 mice; for EAE incidence: 20 animals per group; for Median day of onset (all mice): study end Day 28. The text has this: The goal of the study is to compare efficacy of diroximel fumarate (Vumerity) alone, BIIB091 alone, and the combination diroximel fumarate and BIIB091 in B cell-dependent experimental autoimmune encephalomyelitis (EAE). B cells are required for experimental autoimmune encephalomyelitis (EAE) induced by immunization of female C57BL/6J mice with full length recombinant human myelin oligodendrocyte glycoprotein (MOG) hMOG1-125 in adjuvant (Oliver, A. R. et al. “Rat and human myelin oligodendrocyte glycoproteins induce experimental autoimmune encephalomyelitis by different mechanisms in C57BL/6 mice.” J Immunol (2003). 171(1): 462-468; Lyons, J. et al “B cells are critical to induction of experimental allergic encephalomyelitis by protein but not by a short encephalitogenic peptide”. Eur. J. Immunol. (1999), 29: 3432-3439). [table] Female mice at 9-13 weeks of age (age-matched within one week) were ordered from Taconic Biosciences and given standard water and chow ad libitum throughout the duration of the experiment. Mice were acclimated to the […] for at least 7 days prior to the start of the study. EAE was induced in all mice as follows: [table] Mice were injected subcutaneously at 2 sites in the back with the emulsion component (containing MOG1-125) of Hooke KitTM MOG1-125/CFA Emulsion PTX, catalog number EK-2160 (Hooke Laboratories, Lawrence MA). The first site of injection was in the upper back, approximately 1 cm caudal of the neck line. The second site was in the lower back, approximately 2 cm cranial of the base of the tail. The injection volume was 0.1 mL at each site. Within 2 hours of the injection of emulsion, and then again 24 hours after the injection of emulsion, the pertussis toxin component of the kit was administered intraperitoneally. Mice were assigned to groups in a balanced manner to achieve similar average weight across the groups at the start of the study (Day-1). Dosing volume of all treatments was 5 mL/kg. Both treatment compounds were formulated in the same vehicle: (0.5% HPMC E50 premium LV/0.2% Tween 20 pH 4 (50 mM Citrate Buffer) [table] Dosing of all mice started on Day 0 and continued through Day 27. Dosing for each treatment was at the same time (+/-1 hour) each dosing day. There were at least 30 and not more than 90 minutes between administration of Treatments 1 and 2. There were no less than 10 and no more than 14 hours between doses of the same article Readouts are EAE scores and body weight. Body weight were measured 3 times/week (Monday, Wednesday, Friday; weighing may be delayed 1 day if these fall on a major US holiday), starting on Day-1. Animals were scored daily starting from Day 7. All readouts continued until termination of the study. Scoring was performed blind, by a person unaware both of treatment and of previous scores for each mouse. EAE was scored on the scale of 0 to 5 according to scoring criteria in Table 3 below: [table] In-between scores were assigned when the clinical signs fall between two above defined scores. b. Statistical Analysis Hooke's standard statistical analysis for EAE studies was applied, according to Table 4 below. [table]

For data set [4] the following is noted: cited from earlier work.

Counter-ions that a name gives are not always drawn. Marks after values point to notes of the source that are not given here.

With `Cn1cc(Nc2nccc(-c3ccc4c(c3)CN(C3COC3)CC[C@H]4NC(=O)c3cn(C(C)(C)C)nn3)n2)cn1` [BIIB091, (R)-1-(tert-butyl)-N-(8-(2-((1-methyl-1H-pyrazol-4-yl)amino)pyrimidin-4-yl)-2-(oxetan-3-yl)-2,3,4,5-tetrahydro-1H-benzo[c]azepin-5-yl)-1H-1,2,3-triazole-4-carboxamide], in data set [1], the “Efficacy in mice model of lupus” value is given as “efficacious”. The “Inhibition of BCR-mediated CD69 upregulation” value in data set [2] (whole blood samples from MS patients not on treatment or treated with non-DMF DMTs) is “inhibited”. In data set [2] (whole blood samples from MS patients treated with DMF), the “Inhibition of BCR-mediated CD69 upregulation” value is on record as “inhibited”. In data set [3], the “End score +/- SD” value is on record as 0.60 +/− 0.88^a, the “MMS +/- SD (mean maximum score)” value is reported as 1.13 +/− 1.38^a, the “End % body weight +/- SD” value was determined as 102.8% +/− 8.3%^a and the EAE incidence is on record as 45.0%^a. For the same compound, the “Median day of onset (all mice)” value in data set [3] is >28.0^a* day.

Regarding `COC(=O)/C=C/C(=O)OCCN1C(=O)CCC1=O` [DRF, diroximel fumarate], the “Efficacy in mice model of lupus” value in data set [1] is “did not show efficacy”. Further, the MMF exposure result in data set [4] (DRF 462 mg dose taken orally versus DMF 240 mg dose taken orally) is on record as “comparable to that of the DMF 240 mg dose”. Further, in data set [4] (compared to DMF), the GI tolerability result is given as “improved GI tolerability compared to DMF”. Also, in data set [3], the “End score +/- SD” value is given as 1.00 +/− 1.19^a, the “MMS +/- SD (mean maximum score)” value is 1.45 +/− 1.52^a, the “End % body weight +/- SD” value is 98.2% +/− 8.3% and the EAE incidence is recorded as 50.0%^a. Further, the “Median day of onset (all mice)” value in data set [3] was >28.0^a* day.

Source of the values: US20240216330A1, “COMBINATION TREATMENT METHODS OF MULTIPLE SCLEROSIS” (BIOGEN MA INC., priority 2021, published 2024).
